Experimental findings from ChEMBL document CHEMBL1201862, “PubChem BioAssay data set” (2004) are described below.

Structures are written as SMILES. Calls of active or inactive are those of the source.

Experiment [1] has as its target T1, Ubiquitin-conjugating enzyme E2 N (Homo sapiens, UniProt P61088).
T1 sequence (P61088 whole entry): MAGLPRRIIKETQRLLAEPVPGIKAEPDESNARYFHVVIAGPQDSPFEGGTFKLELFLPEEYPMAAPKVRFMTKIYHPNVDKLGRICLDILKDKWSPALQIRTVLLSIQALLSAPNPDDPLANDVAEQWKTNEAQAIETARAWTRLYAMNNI
The format is functional.

In another experiment the target is T2, Bcl-2-related protein A1 (Mus musculus, UniProt Q07440).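 Also: confirmatory dose–response counterscreen on Bfl-1, used to check hits from a UBC13 polyubiquitin inhibitor campaign.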
T2 sequence (Q07440 whole entry): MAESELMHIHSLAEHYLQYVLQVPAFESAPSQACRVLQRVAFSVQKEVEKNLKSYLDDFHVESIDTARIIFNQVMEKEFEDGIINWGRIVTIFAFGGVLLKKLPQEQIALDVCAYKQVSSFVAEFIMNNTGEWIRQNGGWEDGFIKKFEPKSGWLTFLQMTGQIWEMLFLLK
The format is functional.

Experiment [2] addresses T1, Ubiquitin-conjugating enzyme E2 N. The format is functional. This is another data set of the same source.
In experiment [3] the target is T3, Replicative DNA helicase DnaB (Mycobacterium tuberculosis, UniProt P9WMR3).
T3 sequence (P9WMR3 whole entry): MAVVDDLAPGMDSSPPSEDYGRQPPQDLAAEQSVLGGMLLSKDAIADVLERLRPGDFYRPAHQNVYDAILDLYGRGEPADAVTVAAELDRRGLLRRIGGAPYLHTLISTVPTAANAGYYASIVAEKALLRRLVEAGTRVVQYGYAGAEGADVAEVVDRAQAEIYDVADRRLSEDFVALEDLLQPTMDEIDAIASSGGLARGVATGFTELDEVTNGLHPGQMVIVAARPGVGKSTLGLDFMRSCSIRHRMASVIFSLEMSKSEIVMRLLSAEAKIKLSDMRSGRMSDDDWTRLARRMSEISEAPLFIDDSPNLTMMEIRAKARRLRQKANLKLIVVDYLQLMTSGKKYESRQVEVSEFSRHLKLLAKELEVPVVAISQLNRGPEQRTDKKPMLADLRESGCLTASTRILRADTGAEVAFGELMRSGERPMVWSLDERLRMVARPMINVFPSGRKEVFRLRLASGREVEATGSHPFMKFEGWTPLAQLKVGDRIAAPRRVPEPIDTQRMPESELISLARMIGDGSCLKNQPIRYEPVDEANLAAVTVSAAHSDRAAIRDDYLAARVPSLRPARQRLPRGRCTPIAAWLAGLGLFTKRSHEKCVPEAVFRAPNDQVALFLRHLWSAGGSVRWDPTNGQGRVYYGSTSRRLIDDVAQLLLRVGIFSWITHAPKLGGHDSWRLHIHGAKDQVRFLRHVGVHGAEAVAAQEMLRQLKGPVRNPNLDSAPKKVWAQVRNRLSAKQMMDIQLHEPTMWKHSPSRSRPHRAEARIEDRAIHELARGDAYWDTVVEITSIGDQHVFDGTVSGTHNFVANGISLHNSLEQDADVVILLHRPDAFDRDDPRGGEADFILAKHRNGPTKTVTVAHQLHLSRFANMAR
Put plainly: DnaB intein splicing inhibitors, dose response, biochemical, cell-free fluorescence (AID 449749). Format: functional.

The target of experiment [4] is G-protein coupled receptor 55 (Homo sapiens, UniProt Q9Y2T6). Put plainly: GPR55 antagonists, SAR follow-up, counter-screen for GPR35 antagonist project, imaging, image-based (AID 2397). The format is functional. (In general: A counterscreen serves to expose hits that act by an unwanted route or on another target.)
In the next experiment the target is T4, Protein RecA (Mycobacterium tuberculosis, UniProt P9WHJ3).
T4 sequence (P9WHJ3 whole entry): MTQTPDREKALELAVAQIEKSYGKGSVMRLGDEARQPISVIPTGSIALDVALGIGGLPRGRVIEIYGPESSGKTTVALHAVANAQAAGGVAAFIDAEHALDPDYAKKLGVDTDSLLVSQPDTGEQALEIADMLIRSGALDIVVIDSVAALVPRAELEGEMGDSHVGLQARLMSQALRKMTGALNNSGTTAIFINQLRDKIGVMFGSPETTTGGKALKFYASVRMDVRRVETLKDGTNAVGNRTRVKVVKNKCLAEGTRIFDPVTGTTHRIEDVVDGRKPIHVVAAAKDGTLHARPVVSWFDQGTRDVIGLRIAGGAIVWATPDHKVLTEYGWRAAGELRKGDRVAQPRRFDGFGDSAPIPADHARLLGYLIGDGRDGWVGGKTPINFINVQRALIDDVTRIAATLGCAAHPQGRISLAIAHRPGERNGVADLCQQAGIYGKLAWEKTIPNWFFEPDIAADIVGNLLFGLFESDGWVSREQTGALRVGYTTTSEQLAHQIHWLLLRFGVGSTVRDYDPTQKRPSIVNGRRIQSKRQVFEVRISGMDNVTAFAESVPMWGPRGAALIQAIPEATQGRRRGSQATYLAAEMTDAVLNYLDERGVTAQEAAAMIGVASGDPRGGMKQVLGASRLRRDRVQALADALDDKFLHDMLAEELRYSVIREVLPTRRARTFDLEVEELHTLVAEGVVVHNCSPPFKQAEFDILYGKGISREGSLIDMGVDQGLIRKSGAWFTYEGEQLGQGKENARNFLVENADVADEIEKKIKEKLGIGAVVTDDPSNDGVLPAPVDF
Description: Fluorescence Cell-Free Homogeneous Dose Retest to Identify Inhibitors of RecA-Intein Splicing Activity. [Related pubchem assays (depositor defined):AID2097, AID2223, AID489010, AID492950]. Format: functional.

Experiment [5] can be described thus: HEp-2 cell cytotoxicity, dose response, cytotoxicity control for RSV inhibitor project, HTS (AID 2410). The following applies: human respiratory syncytial virus. The format is functional.
For experiment [6], the target named is E3 ubiquitin-protein ligase XIAP (Homo sapiens, UniProt P98170). Put plainly: Counter Screen using XIAP-Bir3 for Chemical Antagonists of Bir1/2 domains of IAP-family anti-apoptotic proteins. [Related pubchem assays (depositor defined):AID1018, AID1449, AID1514, AID1638, AID1749, AID1750, AID488957, AID488963].
The target in experiment [7] is T5, Voltage-gated N-type calcium channel alpha-1B subunit/Amyloid beta A4 precursor protein-binding family A member 1 (Homo sapiens, UniProt Q00975+Q02410). Format: protein assay.
For experiment [8], the target named is T5, Voltage-gated N-type calcium channel alpha-1B subunit/Amyloid beta A4 precursor protein-binding family A member 1. Format: protein assay. This is another data set of the same source.
Experiment [9] concerns the target DNA dC->dU-editing enzyme APOBEC-3G (Homo sapiens, UniProt Q9HC16). Put plainly: Dose Response confirmation of small molecule APOBEC3G DNA Deaminase Inhibitors via a fluorescence-based single-stranded DNA deaminase assay. [Related pubchem assays (depositor defined):AID493012, AID493028]. Format: functional.
The next experiment concerns the target T6, Leucine aminopeptidase (Plasmodium falciparum 3D7, UniProt Q8IL11).
T6 sequence (Q8IL11 whole entry): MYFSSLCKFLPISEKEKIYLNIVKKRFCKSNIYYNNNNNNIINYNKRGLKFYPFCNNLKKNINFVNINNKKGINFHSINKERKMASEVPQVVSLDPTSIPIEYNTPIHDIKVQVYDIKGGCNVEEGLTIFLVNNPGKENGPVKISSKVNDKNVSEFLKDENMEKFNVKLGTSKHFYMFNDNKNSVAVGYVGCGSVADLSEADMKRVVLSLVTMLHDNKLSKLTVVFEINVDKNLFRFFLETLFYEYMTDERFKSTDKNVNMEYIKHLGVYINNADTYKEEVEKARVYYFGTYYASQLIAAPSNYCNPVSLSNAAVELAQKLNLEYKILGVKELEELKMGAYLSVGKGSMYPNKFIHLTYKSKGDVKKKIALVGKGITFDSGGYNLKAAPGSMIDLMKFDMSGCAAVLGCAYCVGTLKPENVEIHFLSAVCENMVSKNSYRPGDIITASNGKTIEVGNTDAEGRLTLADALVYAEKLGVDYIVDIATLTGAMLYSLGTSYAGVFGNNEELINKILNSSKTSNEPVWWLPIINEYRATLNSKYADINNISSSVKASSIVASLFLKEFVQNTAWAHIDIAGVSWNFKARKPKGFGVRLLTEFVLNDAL
Description: P. falciparum M17LAP inhibitors, primary screen, biochemical, fluorogenic H-Leu-NHMec substrate, 1536-well (AID 1619). The format is functional.

The target of experiment [10] is DNA dC->dU-editing enzyme APOBEC-3A (Homo sapiens, UniProt P31941). Description: APOBEC3A DNA deaminase inhibitors, dose response, biochemical (AID 504722). Format: functional.
The target in experiment [11] is Scavenger receptor class B member 1 (Mus musculus, UniProt Q61009). Description: inhibitors of SR-BI mediated HDL lipid uptake, dose response, ldlA[mSR-BI] cells, fluorescence, cherry pick (AID 493194).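 Also: cellular uptake of fluorescent DiI-labeled HDL measured as cell fluorescence.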 The format is functional, cell-based.
Experiment [12] in a line: Shn3 3'UTR reporter inhibitors, dose response, cell-based, Clone20 osteoblasts, firefly luciferase, cherry-picked (AID 624132).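 Also: firefly luciferase luminescence from reporter carrying the Shn3 3'UTR in osteoblasts.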 The format is functional.
A short description of experiment [13]: growth suppression of PTEN-null colon cells, dose response, cell-based, HCT116 PTEN knockout (AID 1047).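 Also: HCT116 colon tumor cells with PTEN knocked out; cells exposed to compound for 60 hours before readout; potency for loss of cell viability measured by luminescence.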 Format: functional.
The nature of experiment [14]: HepG2 cell cytotoxicity, dose response, cytotoxicity control for Shn3 inhibitor project, CellTiter-Glo, cherry-picked (AID 624134). The format is functional, cell-based. A general note: ATP-based viability assays read luminescence as a measure of living cells.
Experiment [15] in a line: growth suppression of beta-catenin-knockout colon cells, dose response, cell-based, HCT116, human colon tumor (AID 1045).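 Also: HCT116 colon tumor cells with beta catenin knocked out; cells exposed to compound for 60 hours.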 Format: functional.
Experiment [16] is described as follows: control 3'UTR Renilla luciferase suppression, dose response, counter-screen for Shn3 inhibitor project, cell-based, Clone20-Shn3RL, cherry-picked (AID 624133). Format: functional.
Experiment [17] addresses Glyceraldehyde-3-phosphate dehydrogenase (Homo sapiens, UniProt P04406).
In experiment [18] the target is T7, Dual specificity protein phosphatase 6 (Rattus norvegicus, UniProt Q64346).
T7 sequence (Q64346 whole entry): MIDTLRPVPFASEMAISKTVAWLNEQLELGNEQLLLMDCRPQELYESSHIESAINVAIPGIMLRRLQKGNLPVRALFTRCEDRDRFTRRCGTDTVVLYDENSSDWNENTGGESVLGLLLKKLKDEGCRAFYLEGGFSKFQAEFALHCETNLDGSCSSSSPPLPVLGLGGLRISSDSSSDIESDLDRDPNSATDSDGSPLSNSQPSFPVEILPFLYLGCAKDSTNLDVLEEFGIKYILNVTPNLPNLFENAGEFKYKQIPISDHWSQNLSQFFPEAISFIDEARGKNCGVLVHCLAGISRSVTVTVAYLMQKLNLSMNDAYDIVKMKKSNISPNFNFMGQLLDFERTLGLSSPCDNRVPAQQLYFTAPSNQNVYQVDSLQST
The format is functional.

The target of experiment [19] is T8, Tyrosine-protein phosphatase non-receptor type 7 (Homo sapiens, UniProt P35236).
T8 sequence (P35236 whole entry): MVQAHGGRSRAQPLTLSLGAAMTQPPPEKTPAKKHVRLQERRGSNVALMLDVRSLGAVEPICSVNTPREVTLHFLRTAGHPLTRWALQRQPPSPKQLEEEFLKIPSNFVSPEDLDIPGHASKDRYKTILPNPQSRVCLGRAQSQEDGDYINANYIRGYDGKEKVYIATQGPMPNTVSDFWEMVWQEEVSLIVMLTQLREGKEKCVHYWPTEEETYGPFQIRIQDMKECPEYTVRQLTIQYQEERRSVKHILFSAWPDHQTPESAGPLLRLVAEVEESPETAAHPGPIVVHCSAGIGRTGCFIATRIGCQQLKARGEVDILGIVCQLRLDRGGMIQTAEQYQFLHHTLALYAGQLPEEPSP
The format is functional.

For experiment [20], the target named is T7, Dual specificity protein phosphatase 6.

T5 sequence (Q00975 whole entry): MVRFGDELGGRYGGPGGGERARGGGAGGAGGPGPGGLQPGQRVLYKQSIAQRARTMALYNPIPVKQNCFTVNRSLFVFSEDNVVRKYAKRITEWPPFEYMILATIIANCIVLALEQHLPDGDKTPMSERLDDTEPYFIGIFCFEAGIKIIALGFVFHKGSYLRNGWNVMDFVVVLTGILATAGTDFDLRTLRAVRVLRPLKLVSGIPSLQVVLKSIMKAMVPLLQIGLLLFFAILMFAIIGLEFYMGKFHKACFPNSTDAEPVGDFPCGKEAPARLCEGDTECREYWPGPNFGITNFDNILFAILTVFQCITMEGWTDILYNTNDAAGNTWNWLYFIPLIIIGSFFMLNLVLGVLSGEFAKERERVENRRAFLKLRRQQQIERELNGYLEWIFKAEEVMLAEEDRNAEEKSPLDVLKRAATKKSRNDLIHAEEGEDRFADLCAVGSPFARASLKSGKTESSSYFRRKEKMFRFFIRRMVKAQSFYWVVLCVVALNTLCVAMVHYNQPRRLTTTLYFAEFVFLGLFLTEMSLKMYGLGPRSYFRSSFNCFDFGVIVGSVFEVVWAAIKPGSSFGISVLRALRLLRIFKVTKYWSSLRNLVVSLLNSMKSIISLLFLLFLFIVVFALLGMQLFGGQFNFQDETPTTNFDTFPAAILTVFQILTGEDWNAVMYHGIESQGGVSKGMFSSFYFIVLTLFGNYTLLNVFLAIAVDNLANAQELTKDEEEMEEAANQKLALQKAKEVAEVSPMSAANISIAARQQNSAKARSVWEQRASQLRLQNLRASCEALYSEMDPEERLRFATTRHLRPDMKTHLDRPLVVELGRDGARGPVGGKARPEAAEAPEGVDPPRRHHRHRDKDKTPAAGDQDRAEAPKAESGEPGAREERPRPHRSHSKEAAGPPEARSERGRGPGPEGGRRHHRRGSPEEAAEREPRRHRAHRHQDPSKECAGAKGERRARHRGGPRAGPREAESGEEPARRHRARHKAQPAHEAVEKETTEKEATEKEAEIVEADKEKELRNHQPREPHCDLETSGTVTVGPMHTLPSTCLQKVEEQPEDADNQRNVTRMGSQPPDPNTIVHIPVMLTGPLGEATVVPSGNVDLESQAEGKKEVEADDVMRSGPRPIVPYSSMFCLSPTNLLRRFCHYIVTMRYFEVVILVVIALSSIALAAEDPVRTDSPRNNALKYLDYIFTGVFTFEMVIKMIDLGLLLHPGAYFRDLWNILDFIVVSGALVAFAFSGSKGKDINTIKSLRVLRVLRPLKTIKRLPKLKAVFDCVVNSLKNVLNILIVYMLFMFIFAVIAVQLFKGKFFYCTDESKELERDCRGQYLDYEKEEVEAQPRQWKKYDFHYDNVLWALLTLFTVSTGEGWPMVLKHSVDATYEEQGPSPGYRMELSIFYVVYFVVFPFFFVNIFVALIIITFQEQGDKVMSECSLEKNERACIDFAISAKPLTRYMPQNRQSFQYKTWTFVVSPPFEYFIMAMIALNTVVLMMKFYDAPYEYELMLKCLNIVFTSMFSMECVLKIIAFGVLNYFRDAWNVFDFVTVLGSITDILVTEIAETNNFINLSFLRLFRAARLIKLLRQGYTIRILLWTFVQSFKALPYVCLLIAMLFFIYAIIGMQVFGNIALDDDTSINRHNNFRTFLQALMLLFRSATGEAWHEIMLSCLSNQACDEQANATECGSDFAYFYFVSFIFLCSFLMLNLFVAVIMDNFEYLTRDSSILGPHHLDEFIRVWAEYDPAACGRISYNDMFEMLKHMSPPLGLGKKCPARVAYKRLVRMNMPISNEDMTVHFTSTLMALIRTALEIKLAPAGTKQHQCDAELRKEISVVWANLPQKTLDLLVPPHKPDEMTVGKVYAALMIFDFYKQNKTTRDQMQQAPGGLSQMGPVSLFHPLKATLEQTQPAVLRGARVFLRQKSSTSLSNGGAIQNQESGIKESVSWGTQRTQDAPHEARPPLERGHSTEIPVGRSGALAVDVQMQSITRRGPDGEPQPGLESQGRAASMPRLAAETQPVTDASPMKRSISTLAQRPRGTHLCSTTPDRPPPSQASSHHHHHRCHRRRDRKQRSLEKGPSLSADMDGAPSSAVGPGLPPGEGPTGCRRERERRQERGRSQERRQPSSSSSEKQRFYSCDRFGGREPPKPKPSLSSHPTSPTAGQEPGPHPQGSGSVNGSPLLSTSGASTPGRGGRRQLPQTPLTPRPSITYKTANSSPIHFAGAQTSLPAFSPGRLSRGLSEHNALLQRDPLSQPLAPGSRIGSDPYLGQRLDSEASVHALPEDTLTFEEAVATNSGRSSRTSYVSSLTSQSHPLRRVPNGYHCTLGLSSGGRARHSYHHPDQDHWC
T5 sequence (Q02410 whole entry): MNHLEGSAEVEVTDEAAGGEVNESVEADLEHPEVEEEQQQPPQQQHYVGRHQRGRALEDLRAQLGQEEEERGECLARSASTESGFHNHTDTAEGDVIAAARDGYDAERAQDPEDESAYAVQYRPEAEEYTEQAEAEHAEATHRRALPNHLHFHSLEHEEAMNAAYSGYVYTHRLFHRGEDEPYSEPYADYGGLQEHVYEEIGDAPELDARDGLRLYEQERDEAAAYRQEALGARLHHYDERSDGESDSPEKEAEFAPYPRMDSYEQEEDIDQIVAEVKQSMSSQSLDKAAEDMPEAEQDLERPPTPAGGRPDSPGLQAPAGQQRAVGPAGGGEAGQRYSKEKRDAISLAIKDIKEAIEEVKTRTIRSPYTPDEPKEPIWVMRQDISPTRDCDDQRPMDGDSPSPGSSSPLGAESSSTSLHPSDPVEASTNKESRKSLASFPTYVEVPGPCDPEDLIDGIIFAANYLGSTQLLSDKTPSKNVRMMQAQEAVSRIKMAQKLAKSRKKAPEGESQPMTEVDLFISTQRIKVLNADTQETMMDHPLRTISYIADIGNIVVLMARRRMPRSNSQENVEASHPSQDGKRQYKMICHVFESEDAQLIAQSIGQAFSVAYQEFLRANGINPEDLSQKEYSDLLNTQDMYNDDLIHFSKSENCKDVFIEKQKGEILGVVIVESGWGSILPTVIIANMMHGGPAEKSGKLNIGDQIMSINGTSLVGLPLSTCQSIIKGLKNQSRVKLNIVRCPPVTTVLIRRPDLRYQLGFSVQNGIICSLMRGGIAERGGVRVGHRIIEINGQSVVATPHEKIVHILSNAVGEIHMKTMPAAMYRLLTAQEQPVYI
Sequence of Glyceraldehyde-3-phosphate dehydrogenase (P04406 whole entry): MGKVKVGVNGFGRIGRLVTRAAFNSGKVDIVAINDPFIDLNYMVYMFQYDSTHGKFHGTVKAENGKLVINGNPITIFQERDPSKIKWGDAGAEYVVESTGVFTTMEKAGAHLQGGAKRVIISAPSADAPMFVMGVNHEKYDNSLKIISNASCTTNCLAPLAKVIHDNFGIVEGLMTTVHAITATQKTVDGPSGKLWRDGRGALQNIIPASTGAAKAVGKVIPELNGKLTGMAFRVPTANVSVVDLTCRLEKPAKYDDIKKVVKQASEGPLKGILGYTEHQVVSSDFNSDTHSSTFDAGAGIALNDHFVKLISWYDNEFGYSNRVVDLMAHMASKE
Sequence of Scavenger receptor class B member 1 (Q61009 whole entry): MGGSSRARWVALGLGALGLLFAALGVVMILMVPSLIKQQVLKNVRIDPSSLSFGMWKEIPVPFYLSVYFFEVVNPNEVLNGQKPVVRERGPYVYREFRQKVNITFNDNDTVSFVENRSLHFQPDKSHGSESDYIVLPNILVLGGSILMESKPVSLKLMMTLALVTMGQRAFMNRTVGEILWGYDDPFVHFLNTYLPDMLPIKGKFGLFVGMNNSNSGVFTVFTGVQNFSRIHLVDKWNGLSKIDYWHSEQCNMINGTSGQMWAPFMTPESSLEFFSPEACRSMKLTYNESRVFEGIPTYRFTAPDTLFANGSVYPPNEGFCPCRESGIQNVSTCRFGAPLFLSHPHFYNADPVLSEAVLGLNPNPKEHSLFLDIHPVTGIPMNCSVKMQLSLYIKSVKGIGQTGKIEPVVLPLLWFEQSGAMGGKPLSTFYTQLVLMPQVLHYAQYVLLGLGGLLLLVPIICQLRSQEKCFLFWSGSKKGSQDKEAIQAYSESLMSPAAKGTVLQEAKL
Sequence of G-protein coupled receptor 55 (Q9Y2T6 whole entry): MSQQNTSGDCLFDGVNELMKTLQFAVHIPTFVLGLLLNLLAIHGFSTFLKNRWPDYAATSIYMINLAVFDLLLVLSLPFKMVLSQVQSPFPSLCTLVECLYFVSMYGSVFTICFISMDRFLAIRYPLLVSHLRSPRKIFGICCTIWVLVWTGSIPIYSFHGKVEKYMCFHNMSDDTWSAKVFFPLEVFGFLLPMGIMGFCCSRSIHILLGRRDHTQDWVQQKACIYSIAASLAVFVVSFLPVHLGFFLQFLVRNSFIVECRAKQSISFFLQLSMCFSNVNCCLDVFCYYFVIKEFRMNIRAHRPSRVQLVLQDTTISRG
Sequence of DNA dC->dU-editing enzyme APOBEC-3A (P31941 whole entry): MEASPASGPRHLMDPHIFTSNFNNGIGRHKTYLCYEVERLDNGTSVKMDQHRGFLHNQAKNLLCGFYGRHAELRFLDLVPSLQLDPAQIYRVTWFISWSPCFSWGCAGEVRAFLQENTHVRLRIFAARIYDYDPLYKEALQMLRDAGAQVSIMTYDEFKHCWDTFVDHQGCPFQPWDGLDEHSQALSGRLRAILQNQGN
Sequence of DNA dC->dU-editing enzyme APOBEC-3G (Q9HC16 whole entry): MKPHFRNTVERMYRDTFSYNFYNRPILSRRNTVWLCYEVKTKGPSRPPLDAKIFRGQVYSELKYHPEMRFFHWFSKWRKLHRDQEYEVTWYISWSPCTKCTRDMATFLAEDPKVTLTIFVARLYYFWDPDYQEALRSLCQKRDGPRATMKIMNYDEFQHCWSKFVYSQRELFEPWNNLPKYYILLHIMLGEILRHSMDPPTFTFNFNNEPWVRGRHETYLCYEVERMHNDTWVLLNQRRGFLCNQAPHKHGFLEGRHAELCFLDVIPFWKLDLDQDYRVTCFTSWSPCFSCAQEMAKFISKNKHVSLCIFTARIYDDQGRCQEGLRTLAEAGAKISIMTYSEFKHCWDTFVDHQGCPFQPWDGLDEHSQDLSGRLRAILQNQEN

For orientation: IC50 means the midpoint of a concentration-inhibition curve. In the case of `CCN1C(=O)c2cccc3c(NC(=O)c4ccc(S(=O)(=O)N5CCOCC5)cc4)ccc1c23`, the IC50 in [1] was 10.4 µM (active); at Bcl-2-related protein A1, > 20 µM (inactive); in experiment [2], 9.74 µM (active).
What is called AC50 is the midpoint of the concentration-response curve, whichever way the signal moves. One may read the EC50 as the concentration that produces a half-maximal response. In general, CC50 refers to the concentration that lowers cell viability or growth by half. With `O=C(CCCN1C(=O)/C(=C\c2cccs2)SC1=S)Nc1ccc(O)cc1`, the AC50 in [3] was 2.19 µM (active). In [4], the IC50 is 29.5 µM (inactive). At Protein RecA, the EC50 was 5.95 µM (active). Further, the CC50 in [5] is 12.5 µM (active).
In the case of `CCC(=O)NC(=S)NNC(=O)c1ccc(O)cc1`, the IC50 in experiment [1] is 12.2 µM (active); at Bcl-2-related protein A1, > 20 µM (inactive); in experiment [2], 8.9 µM (active).
Consider `O=c1[nH]n(-c2ccc([N+](=O)[O-])cc2)c(=O)c2ccccc12`, for which, in [6], the IC50 is > 20 µM (inactive).
Turning to `CN(CCOC(=O)/C=C/c1ccco1)Cc1ccccc1`, the results for the concentration for half-maximal inhibition (IC50) in [7] and in experiment [8] were 29.1 µM (active) and 18.5 µM (active), respectively.
For the compound `CCOc1ccc(N2C(=O)CC(Sc3n[nH]c(-c4ccccc4)n3)C2=O)cc1` (stereo unspecified), the IC50 is 14 µM (active) in experiment [9], 11.1 µM (active) at Leucine aminopeptidase and > 100 µM (inactive) in experiment [10].
Turning to `O=C(Nc1ccc(Cl)c(Cl)c1)Nc1ccc(N2CCCC2)c(S(=O)(=O)Nc2ccccc2Cl)c1`, the AC50 in experiment [11] was 12.7 µM (active); in [12], 5.13 µM (active); in [14], 27 µM (active); in experiment [16], 11.4 µM (active). The values for the EC50 in experiment [13] and in [15] were 3.35 µM (active) and 3.8 µM (active), respectively.
In the case of `CCCCCCCCCCCCCCCCCCC#CCCCCCCCCCCCC(=O)O`, the IC50 in experiment [17] was > 100 µM (not active); in experiment [18], > 100 µM (inactive); in experiment [19], 28.3 µM (active); in experiment [20], > 100 µM (inactive).
Turning to `Cn1c(=O)n(-c2ccc(Cl)cc2)c(=O)n([C@@H](Cc2ccccc2)C(N)=O)c1=O`, the IC50 in experiment [17] was > 100 µM (not active); in experiment [18], > 100 µM (inactive); in experiment [19], > 100 µM (not active); in experiment [20] it was > 100 µM (inactive).
As to `O=C(NNC(=O)c1cc(Br)ccc1O)c1csc(N2CCOCC2)n1`, the half-maximal activity concentration (AC50) in [11] was 2.75 µM (active).
